# Test results reported in patent publication US20100273748A1, “ANTIMICROBIAL THERAPY” (priority 2006, published 2010).
# How the values were obtained:
# acetylated histone H4 = experiment: Histone H4 acetylation in keratinocytes (immunofluorescence, Western blot); format: cell-based, human; conditions: HDACi in the presence of 1,25D3
# Protocol: Panel a; Immunofluorescence staining of acetylated histone H4 protein in NHEK treated with HDACi in the presence or absence of 1,25D3. […] Panel b: Western blot of acetylated histone 4 from keratinocytes treated with the HDACi butyrate or TLR agonists. […] Bar=30 μM.
# The abundance of acetylated histone was directly measured to confirm the inhibitory effects of butyrate and TSA on HDACs. […] To determine if changes in histone acetylation occur upon stimulation of keratinocytes with TLR ligands NHEK were stimulated with different TLR ligands and histone acetylation was assessed.
# TLR2 [1] = experiment: Topical treatment of healthy volunteers' skin, TLR2 immunostaining; format: in vivo, human; conditions: topical 1,25D3 1.0 mM once applied, 4 days, versus vehicle-treated contralateral skin
# Protocol: (§1) Patients and treatments. Human skin wounds were collected following informed consent by inducing 5 mm full-thickness wounds in volunteers (n=5) under aseptic conditions with local anesthesia as described. At 24 hours after incision, 4 mm punch biopsies were taken from the site of injury and immediately fixed in formalin for immunostaining or frozen in liquid N2 for subsequent RNA isolation. Intact skin from healthy volunteers served as control (n=4). To examine the effects of topical 1,25D3, healthy skin of volunteers (n=7) was treated once topically with 1,25D3 (1.0 mM) and left under occlusion for 4 days. Vehicle treated contralateral skin served as a control. After treatment, skin biopsies were obtained from both sites, fixed in formalin 10% and embedded in paraffin for immunostaining. All treatments and sample acquisitions, including skin biopsies, were approved by the committees on investigations involving human subjects.
# (§2) Immunostaining. […] Nuclei were detected with DAPI. After subsequent washings with PBS slides, were mounted in ProLong Anti-Fade reagent (Molecular Probes, Eugene, Oreg.) and evaluated with an Olympus BX41 microscope (Olympus, Melville, N.Y.). […]
# (§3) NaOH, pH6.0). […] Sections were washed in PBS and detected with biotinylated secondary antibodies (Vector Laboratories, Burlingame, Calif.) and diaminobenzidine substrate (Sigma) per manufacturers' instructions.
# CYP24A1 = experiment: qPCR of CYP24A1 mRNA in cultured keratinocytes; format: cell-based, human; conditions: 1,25D3 10^−8M, 24 hours
# Protocol: (§4) Cell culture and stimuli. Human keratinocytes were grown in serum-free EpiLife® cell culture media (Cascade Biologics; Portland, Oreg.) containing 0.06 mM Ca2+ and 1× EpiLife® defined growth supplement (EDGS) at 37° C. under standard tissue culture conditions. Stock cultures were maintained for up to five passages in this media with the addition of 50 U/mL penicillin and 50 μg/mL streptomycin. HaCaT keratinocytes were cultured in DMEM (Sigma, St. Louis, Mo.) with 10% FCS. Cells at 50-70% confluence were stimulated in fresh medium after preincubation with 1,25(OH)2 vitamin D3 (1,25D3; 0.1-100 nM, 4-24 h; Sigma). Alternatively, NHEK were stimulated in the presence of 1,25D3 (0.1-100 nM). […]
# (§5) Real-time RT-PCR (qPCR). […] Expression of cathelicidin and GAPDH was analysed by real-time RT-PCR. […] Fold induction relative to the vehicle treated control in in vitro experiments was calculated using the comparative Ct method, where ΔΔCt is ΔCt(stimulant)-ΔCt(vehicle), ΔCt is Ct(gene)-Ct(GAPDH) and Ct is the cycle at which an arbitrary detection threshold is crossed. For quantification of transcript abundance in tissue samples target gene expression was normalized to GAPDH and compared to non-treated or non-injured skin.
# [2] = test system: Other TLRs and the TLR coreceptor CD36; experiment: qPCR of other TLRs and CD36 in cultured keratinocytes; format: cell-based; conditions: cultured human keratinocytes exposed to 1,25D3
# Protocol: as §4, §5
# cathelicidin [3] = experiment: Topical treatment of healthy volunteers' skin, cathelicidin expression; format: in vivo, human; conditions: topical 1,25D3
# Protocol: as §1, §2, §3
# TLR2 [4] = experiment: qPCR of TLR2 mRNA in cultured keratinocytes; format: cell-based, human; conditions: 1,25D3 100 nM, keratinocyte monolayers, 24 hours
# Protocol: (§6) Cell culture and stimuli. Human keratinocytes were grown in serum-free EpiLife® cell culture media (Cascade Biologics; Portland, Oreg.) containing 0.06 mM Ca2+ and 1× EpiLife® defined growth supplement (EDGS) at 37° C. under standard tissue culture conditions. Stock cultures were maintained for up to five passages in this media with the addition of 50 U/mL penicillin and 50 μg/mL streptomycin. HaCaT keratinocytes were cultured in DMEM (Sigma, St. Louis, Mo.) with 10% FCS. Cells at 50-70% confluence were stimulated in fresh medium after preincubation with 1,25(OH)2 vitamin D3 (1,25D3; 0.1-100 nM, 4-24 h; Sigma). Alternatively, NHEK were stimulated in the presence of 1,25D3 (0.1-100 nM). Stimuli included TLR2,6 ligands Malp-2 (0.001-0.5 μg/ml; Alexis Biochemicals, Carlsbad, Calif.), FSL-1 (1-2 μg/ml, Invivogen, San Diego, Calif.) and zymosan (50 μg/ml; Invivogen), as well as flagellin (50 ng/ml; Alexis), LPS (1 μg/ml; Sigma), lipoteichoic acid (LTA; 10 μg/ml; Sigma), 19 kDA lipopeptide (10 μg/ml, a kind gift from S. Krutzik, Division of Dermatology, UCLA), CpG DNA (10 μg/ml; Sigma), Ca2+ (1.7 mM), LPS (1 μg/ml; Sigma), TNFα (20 ng/ml; Chemicon Temecula, Calif.) and TGFβ1 (0.1-1 μg/ml; R&D Systems, Minneapolis, Minn.). A TLR2 blocking antibody (αTLR2; clone TL2.1, 5 μg/ml, eBioscience, San Diego, Calif.) was utilized to investigate the role of TLR2 signaling. Furthermore, keratinocytes were pretreated with a vitamin D receptor antagonist (VDR-antagonist ZK159222 Schering AG; 10^-7M) or the CYP inhibitor itraconazole (ITRA; 10^-7M) before stimulation with TGFβ in the presence of 25OH vitamin D3 (25D3, 10 nM, Sigma).
# (§7) Real-time RT-PCR (qPCR). RNA was extracted from cells, epidermal constructs or tissue using Trizol® and 1 μg RNA was reverse transcribed using iScript® (BioRad, Hercules, Calif.). Expression of cathelicidin and GAPDH was analysed by real-time RT-PCR. Predeveloped Taqman® assay probes (ABI, Foster City, Calif.) were used for the analyses of the expression of CYP24A1 (24-hydroxylase), CYP27B1 (1α-hydroxylase), CD14, CD36, TLR1, TLR2, TLR4, TLR6 and murine CD14. All analyses were performed in triplicate from 2-5 independent experiments in an ABI Prism® 7000 Sequence Detection System. Fold induction relative to the vehicle treated control in in vitro experiments was calculated using the comparative Ct method, where ΔΔCt is ΔCt(stimulant)-ΔCt(vehicle), ΔCt is Ct(gene)-Ct(GAPDH) and Ct is the cycle at which an arbitrary detection threshold is crossed. For quantification of transcript abundance in tissue samples target gene expression was normalized to GAPDH and compared to non-treated or non-injured skin.
# cathelicidin [5] = experiment: qPCR of cathelicidin mRNA in cultured keratinocytes; format: cell-based, human; conditions: for increase of cathelicidin mRNA: 24 hours
# Protocol: as §6, §7
# CD14 = experiment: qPCR of CD14 mRNA in cultured keratinocytes; format: cell-based, human; conditions: 24 hours
# Protocol: as §6, §7
compound,measurement,setting,value
"C=C1/C(=C\C=C2/CCC[C@]3(C)[C@@H]([C@H](C)CCCC(C)(C)O)CC[C@@H]23)C[C@@H](O)C[C@@H]1O [1,25D3, 1,25(OH)2 vitamin D3]",acetylation of histone H4,acetylated histone H4,further increased
same,TLR2 staining intensity in skin sections,TLR2 [1],Staining intensity increased
same,CYP24A1 transcript abundance,CYP24A1,strongly upregulated
same,expression of other TLRs and CD36,[2],remained unchanged
same,cathelicidin expression in skin,cathelicidin [3],increased expression
same,TLR2 mRNA expression,TLR2 [4],increases expression
same,"increase of cathelicidin expression over cells without 1,25D3","cathelicidin [5]; 1,25D3 0.1 nM, then Malp-2, dose dependent",up to 60 fold
same,increase of cathelicidin mRNA,"cathelicidin [5]; 10^−7 M 1,25D3 in the absence of butyrate",about 75 fold
same,increase of cathelicidin mRNA,"cathelicidin [5]; 10^−7 M 1,25D3 in the presence of butyrate (2 mM)",over 200 fold
same,CD14 mRNA expression,"CD14; 1,25D3 100 nM, keratinocyte monolayers",increases expression
same,CD14 transcript abundance,"CD14; 1,25D3 10^−8M",strongly upregulated
